Source: the supplement of paper PMC10307832

What was measured:
Assay in all cases: relative viability (nuclei count vs DMSO), 5 days (fraction); higher = more cells survive
Adavosertib + Linsitinib = compound: C=CCn1c(=O)c2cnc(Nc3ccc(N4CCN(C)CC4)cc3)nc2n1-c1cccc(C(C)(C)O)n1 [Adavosertib] + C[C@]1(O)C[C@@H](c2nc(-c3ccc4ccc(-c5ccccc5)nc4c3)c3c(N)nccn32)C1 [Linsitinib] (partner 1 µM)
Outline: (§1)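 Each reported value is a median over duplicate plates. It expresses relative viability: treated-well nuclei count divided by vehicle-well nuclei count. Lung cancer cell lines in 1536-well plates were dosed by pin tool a day after seeding, alone with one drug or with a fixed anchor-drug dose plus five library-drug doses (not always all listed) in √10 steps, and nuclei were counted after 5 days.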

Nelarabine + Palbociclib = compound: COc1nc(N)nc2c1ncn2[C@@H]1O[C@H](CO)[C@@H](O)[C@@H]1O [Nelarabine] + CC(=O)c1c(C)c2cnc(Nc3ccc(N4CCNCC4)cn3)nc2n(C2CCCC2)c1=O [Palbociclib] (partner 0.5 µM)
Outline: as §1

Adavosertib + Crizotinib = compound: C=CCn1c(=O)c2cnc(Nc3ccc(N4CCN(C)CC4)cc3)nc2n1-c1cccc(C(C)(C)O)n1 [Adavosertib] + C[C@@H](Oc1cc(-c2cnn(C3CCNCC3)c2)cnc1N)c1c(Cl)ccc(F)c1Cl [Crizotinib] (partner 1 µM)
Outline: as §1

Nelarabine + Decitabine = compound: COc1nc(N)nc2c1ncn2[C@@H]1O[C@H](CO)[C@@H](O)[C@@H]1O [Nelarabine] + Nc1ncn([C@H]2C[C@H](O)[C@@H](CO)O2)c(=O)n1 [Decitabine] (partner 2 µM)
Outline: as §1

NCI-H358
relative viability (Adavosertib + Linsitinib; first compound 0.01 µM): 0.747
relative viability (Adavosertib + Linsitinib; first compound 0.03162 µM): 0.675
relative viability (Adavosertib + Linsitinib; first compound 0.1 µM): 0.547
relative viability (Adavosertib + Linsitinib; first compound 0.3162 µM): 0.374
relative viability (Nelarabine + Palbociclib; first compound 0.01 µM): 0.121
relative viability (Nelarabine + Palbociclib; first compound 0.03162 µM): 0.136
relative viability (Nelarabine + Palbociclib; first compound 0.1 µM): 0.129
relative viability (Nelarabine + Palbociclib; first compound 0.3162 µM): 0.127
relative viability (Nelarabine + Palbociclib; first compound 1 µM): 0.139
relative viability (Adavosertib + Crizotinib; first compound 0.01 µM): 0.542
relative viability (Adavosertib + Crizotinib; first compound 0.03162 µM): 0.559
relative viability (Adavosertib + Crizotinib; first compound 0.1 µM): 0.507
relative viability (Adavosertib + Crizotinib; first compound 0.3162 µM): 0.309
relative viability (Nelarabine + Decitabine; first compound 0.01 µM): 0.219
relative viability (Nelarabine + Decitabine; first compound 0.03162 µM): 0.214
relative viability (Nelarabine + Decitabine; first compound 0.1 µM): 0.171
relative viability (Nelarabine + Decitabine; first compound 0.3162 µM): 0.215
relative viability (Nelarabine + Decitabine; first compound 1 µM): 0.219

NCI-H2347
relative viability (Adavosertib + Linsitinib; first compound 0.01 µM): 0.944
relative viability (Adavosertib + Linsitinib; first compound 0.03162 µM): 0.93
relative viability (Adavosertib + Linsitinib; first compound 0.1 µM): 1.09
relative viability (Adavosertib + Linsitinib; first compound 0.3162 µM): 0.914
relative viability (Nelarabine + Palbociclib; first compound 0.01 µM): 0.407
relative viability (Nelarabine + Palbociclib; first compound 0.03162 µM): 0.37
relative viability (Nelarabine + Palbociclib; first compound 0.1 µM): 0.42
relative viability (Nelarabine + Palbociclib; first compound 0.3162 µM): 0.402
relative viability (Nelarabine + Palbociclib; first compound 1 µM): 0.481
relative viability (Adavosertib + Crizotinib; first compound 0.01 µM): 0.72
relative viability (Adavosertib + Crizotinib; first compound 0.03162 µM): 0.778
relative viability (Adavosertib + Crizotinib; first compound 0.1 µM): 0.772
relative viability (Adavosertib + Crizotinib; first compound 0.3162 µM): 0.699
relative viability (Nelarabine + Decitabine; first compound 0.01 µM): 0.576
relative viability (Nelarabine + Decitabine; first compound 0.03162 µM): 0.596
relative viability (Nelarabine + Decitabine; first compound 0.1 µM): 0.615
relative viability (Nelarabine + Decitabine; first compound 0.3162 µM): 0.626
relative viability (Nelarabine + Decitabine; first compound 1 µM): 0.593

NCI-H1793
relative viability (Adavosertib + Linsitinib; first compound 0.01 µM): 0.822
relative viability (Adavosertib + Linsitinib; first compound 0.03162 µM): 0.765
relative viability (Adavosertib + Linsitinib; first compound 0.1 µM): 0.915
relative viability (Adavosertib + Linsitinib; first compound 0.3162 µM): 0.869
relative viability (Nelarabine + Palbociclib; first compound 0.01 µM): 0.353
relative viability (Nelarabine + Palbociclib; first compound 0.1 µM): 0.316
relative viability (Nelarabine + Palbociclib; first compound 0.3162 µM): 0.398
relative viability (Nelarabine + Palbociclib; first compound 1 µM): 0.318
relative viability (Nelarabine + Decitabine; first compound 0.01 µM): 0.291
relative viability (Nelarabine + Decitabine; first compound 0.1 µM): 0.535
relative viability (Nelarabine + Decitabine; first compound 0.3162 µM): 0.595
relative viability (Nelarabine + Decitabine; first compound 1 µM): 0.513

LU99A
relative viability (Adavosertib + Linsitinib; first compound 0.01 µM): 0.575
relative viability (Adavosertib + Linsitinib; first compound 0.03162 µM): 0.656
relative viability (Adavosertib + Linsitinib; first compound 0.1 µM): 0.499
relative viability (Adavosertib + Linsitinib; first compound 0.3162 µM): 0.417
relative viability (Nelarabine + Palbociclib; first compound 0.01 µM): 0.48
relative viability (Nelarabine + Palbociclib; first compound 0.03162 µM): 0.34
relative viability (Nelarabine + Palbociclib; first compound 0.1 µM): 0.429
relative viability (Nelarabine + Palbociclib; first compound 0.3162 µM): 0.43
relative viability (Nelarabine + Palbociclib; first compound 1 µM): 0.399
relative viability (Adavosertib + Crizotinib; first compound 0.01 µM): 0.529
relative viability (Adavosertib + Crizotinib; first compound 0.03162 µM): 0.584
relative viability (Adavosertib + Crizotinib; first compound 0.1 µM): 0.561
relative viability (Adavosertib + Crizotinib; first compound 0.3162 µM): 0.461
relative viability (Nelarabine + Decitabine; first compound 0.01 µM): 1.02
relative viability (Nelarabine + Decitabine; first compound 0.03162 µM): 0.91
relative viability (Nelarabine + Decitabine; first compound 0.1 µM): 0.971
relative viability (Nelarabine + Decitabine; first compound 0.3162 µM): 0.886
relative viability (Nelarabine + Decitabine; first compound 1 µM): 0.935

NCI-H661
relative viability (Adavosertib + Linsitinib; first compound 0.01 µM): 0.609
relative viability (Adavosertib + Linsitinib; first compound 0.03162 µM): 0.648
relative viability (Adavosertib + Linsitinib; first compound 0.1 µM): 0.463
relative viability (Adavosertib + Linsitinib; first compound 0.3162 µM): 0.417
relative viability (Nelarabine + Palbociclib; first compound 0.01 µM): 0.386
relative viability (Nelarabine + Palbociclib; first compound 0.03162 µM): 0.401
relative viability (Nelarabine + Palbociclib; first compound 0.1 µM): 0.402
relative viability (Nelarabine + Palbociclib; first compound 0.3162 µM): 0.403
relative viability (Nelarabine + Palbociclib; first compound 1 µM): 0.422
relative viability (Adavosertib + Crizotinib; first compound 0.01 µM): 1.08
relative viability (Adavosertib + Crizotinib; first compound 0.03162 µM): 1.1
relative viability (Adavosertib + Crizotinib; first compound 0.1 µM): 1.13
relative viability (Adavosertib + Crizotinib; first compound 0.3162 µM): 1.04
relative viability (Nelarabine + Decitabine; first compound 0.01 µM): 0.625
relative viability (Nelarabine + Decitabine; first compound 0.03162 µM): 0.614
relative viability (Nelarabine + Decitabine; first compound 0.1 µM): 0.599
relative viability (Nelarabine + Decitabine; first compound 0.3162 µM): 0.628
relative viability (Nelarabine + Decitabine; first compound 1 µM): 0.515

SW 900
relative viability (Nelarabine + Palbociclib; first compound 0.01 µM): 0.567
relative viability (Nelarabine + Palbociclib; first compound 0.03162 µM): 0.604
relative viability (Nelarabine + Palbociclib; first compound 0.1 µM): 0.504
relative viability (Nelarabine + Palbociclib; first compound 0.3162 µM): 0.6
relative viability (Nelarabine + Palbociclib; first compound 1 µM): 0.593
relative viability (Nelarabine + Decitabine; first compound 0.01 µM): 0.415
relative viability (Nelarabine + Decitabine; first compound 0.03162 µM): 0.399
relative viability (Nelarabine + Decitabine; first compound 0.1 µM): 0.398
relative viability (Nelarabine + Decitabine; first compound 0.3162 µM): 0.39
relative viability (Nelarabine + Decitabine; first compound 1 µM): 0.41

HCC-827
relative viability (Adavosertib + Linsitinib; first compound 0.01 µM): 0.985
relative viability (Adavosertib + Linsitinib; first compound 0.03162 µM): 0.974
relative viability (Adavosertib + Linsitinib; first compound 0.1 µM): 1.03
relative viability (Adavosertib + Linsitinib; first compound 0.3162 µM): 0.991
relative viability (Nelarabine + Palbociclib; first compound 0.01 µM): 0.537
relative viability (Nelarabine + Palbociclib; first compound 0.03162 µM): 0.504
relative viability (Nelarabine + Palbociclib; first compound 0.1 µM): 0.454
relative viability (Nelarabine + Palbociclib; first compound 0.3162 µM): 0.378
relative viability (Nelarabine + Palbociclib; first compound 1 µM): 0.397
relative viability (Adavosertib + Crizotinib; first compound 0.01 µM): 0.895
relative viability (Adavosertib + Crizotinib; first compound 0.03162 µM): 0.943
relative viability (Adavosertib + Crizotinib; first compound 0.1 µM): 1.03
relative viability (Adavosertib + Crizotinib; first compound 0.3162 µM): 0.929
relative viability (Nelarabine + Decitabine; first compound 0.01 µM): 0.24
relative viability (Nelarabine + Decitabine; first compound 0.03162 µM): 0.315
relative viability (Nelarabine + Decitabine; first compound 0.1 µM): 0.306
relative viability (Nelarabine + Decitabine; first compound 0.3162 µM): 0.355
relative viability (Nelarabine + Decitabine; first compound 1 µM): 0.289

EBC-1
relative viability (Adavosertib + Linsitinib; first compound 0.01 µM): 0.91
relative viability (Adavosertib + Linsitinib; first compound 0.03162 µM): 0.962
relative viability (Adavosertib + Linsitinib; first compound 0.1 µM): 0.994
relative viability (Adavosertib + Linsitinib; first compound 0.3162 µM): 1.18
relative viability (Adavosertib + Crizotinib; first compound 0.01 µM): 0.206
relative viability (Adavosertib + Crizotinib; first compound 0.03162 µM): 0.192
relative viability (Adavosertib + Crizotinib; first compound 0.1 µM): 0.206
relative viability (Adavosertib + Crizotinib; first compound 0.3162 µM): 0.175

NCI-H1395
relative viability (Adavosertib + Linsitinib; first compound 0.01 µM): 1.17
relative viability (Adavosertib + Linsitinib; first compound 0.03162 µM): 1.18
relative viability (Adavosertib + Linsitinib; first compound 0.1 µM): 1.2
relative viability (Adavosertib + Linsitinib; first compound 0.3162 µM): 0.955
relative viability (Nelarabine + Palbociclib; first compound 0.01 µM): 0.543
relative viability (Nelarabine + Palbociclib; first compound 0.03162 µM): 0.559
relative viability (Nelarabine + Palbociclib; first compound 0.1 µM): 0.69
relative viability (Nelarabine + Palbociclib; first compound 0.3162 µM): 0.566
relative viability (Nelarabine + Palbociclib; first compound 1 µM): 0.622
relative viability (Nelarabine + Decitabine; first compound 0.01 µM): 0.678
relative viability (Nelarabine + Decitabine; first compound 0.03162 µM): 0.65
relative viability (Nelarabine + Decitabine; first compound 0.1 µM): 0.723
relative viability (Nelarabine + Decitabine; first compound 0.3162 µM): 0.7
relative viability (Nelarabine + Decitabine; first compound 1 µM): 0.704
